Measured values taken from paper PMC12095788 (Communications Chemistry, 2025).

Key:
[1] = molecular target: T1, Gal4-Nurr1 (wt human Nurr1 LBD) (Homo sapiens, UniProt P43354); test: Gal4-Nurr1 hybrid reporter gene assay (wild-type); format: cell-based
T1 construct: expressed in transfected cells; host or cells: HEK293T

[2] = molecular target: full-length human Nurr1 (NBRE) (Homo sapiens, UniProt P43354); test: Full-length Nurr1 reporter gene assay, monomer response element (NBRE); format: cell-based
[3] = molecular target: full-length human Nurr1 (NurRE) (Homo sapiens, UniProt P43354); test: Full-length Nurr1 reporter gene assay, homodimer response element (NurRE); format: cell-based
[4] = molecular target: full-length human Nurr1 / RXR heterodimer (DR5) (Homo sapiens, UniProt P43354); test: Full-length Nurr1 reporter gene assay, RXR-heterodimer response element (DR5); format: cell-based
Nurr1 LBD - NCOR1 = molecular target: T2, Nurr1 LBD - NCOR1 (Homo sapiens, UniProt P43354); test: HTRF co-regulator recruitment assay, NCOR1; format: biochemical; conditions: fluorescein labeled corepressor peptide, read-out: IC50 NCOR1 displacement from Nurr1 LBD
T2 construct: a plasmid construct encoding Nurr1 (aa 364-598) in a pMal vector system; MBP (cleaved yes); made in house; host or cells: E. coli BL21-R3-pRARE2
Source text: (§1) Homogeneous time-resolved fluorescence energy transfer (HTRF) experiments were used to study the recruitment of co-regulator peptides to the Nurr1-LBD in the presence or absence of test compounds. Terbium cryptate as streptavidin conjugate (Tb-SA; Cisbio Bioassays, Codolet, France) was used as FRET donor for stable coupling to biotinylated recombinant Nurr1 LBD protein. Fluorescein-labeled co-regulator peptides were used as FRET acceptors (peptide sequences are reported in Supplementary Tab. 4). […] Recruitment of CoREST and Lmx1b peptides was studied using biotin-labeled peptides for stable coupling to Tb-SA as FRET donor and sGFP-Nurr1[26] LBD as FRET acceptor. […] Experiments were carried out in 384 well format using white flat bottom small volume polystyrol microtiter plates (Greiner Bio-One, Frickenhausen, Germany). After 2 h incubation at rt, fluorescence intensities (FI) after excitation at 340 nm were recorded at 520 nm for fluorescein acceptor fluorescence and 620 nm for Tb-SA donor fluorescence on a SPARK plate reader (Tecan Group Ltd.). FI520 nm was divided by FI620 nm and multiplied with 10,000 to give a dimensionless HTRF signal.

Nurr1 LBD - SMRT = molecular target: T3, Nurr1 LBD - SMRT (Homo sapiens, UniProt P43354); test: HTRF co-regulator recruitment assay, SMRT; format: biochemical; conditions: fluorescein labeled corepressor peptide, read-out: IC50 SMRT displacement from Nurr1 LBD
T3 construct: a plasmid construct encoding Nurr1 (aa 364-598) in a pMal vector system; MBP (cleaved yes); made in house; host or cells: E. coli BL21-R3-pRARE2
Source text: as §1

Nurr1 LBD - PIASγ = molecular target: T4, Nurr1 LBD - PIASγ (Homo sapiens, UniProt P43354); test: HTRF co-regulator recruitment assay, PIASγ; format: biochemical; conditions: fluorescein labeled corepressor peptide, read-out: IC50 PIASγ displacement from Nurr1 LBD
T4 construct: a plasmid construct encoding Nurr1 (aa 364-598) in a pMal vector system; MBP (cleaved yes); made in house; host or cells: E. coli BL21-R3-pRARE2
Source text: as §1

Nurr1 LBD - NRIP = molecular target: T5, Nurr1 LBD - NRIP (Homo sapiens, UniProt P43354); test: HTRF co-regulator recruitment assay, NRIP; format: biochemical; conditions: fluorescein labeled coactivator peptide, read-out: IC50 NRIP displacement from Nurr1 LBD
T5 construct: a plasmid construct encoding Nurr1 (aa 364-598) in a pMal vector system; MBP (cleaved yes); made in house; host or cells: E. coli BL21-R3-pRARE2
Source text: as §1

Nurr1 LBD - NCoA6 = molecular target: T6, Nurr1 LBD - NCoA6 (Homo sapiens, UniProt P43354); test: HTRF co-regulator recruitment assay, NCoA6; format: biochemical; conditions: fluorescein labeled coactivator peptide, read-out: IC50 NCoA6 displacement from Nurr1 LBD
T6 construct: a plasmid construct encoding Nurr1 (aa 364-598) in a pMal vector system; MBP (cleaved yes); made in house; host or cells: E. coli BL21-R3-pRARE2
Source text: as §1

Nurr1 LBD - CoREST = molecular target: T7, Nurr1 LBD - CoREST (Homo sapiens, UniProt P43354); test: HTRF co-regulator recruitment assay, CoREST; format: biochemical; conditions: biotinylated CoREST peptide, sGFP-Nurr1 LBD
T7 construct: sGFP-Nurr1[26]; LBD as FRET acceptor; made in house
Source text: as §1

Nurr1 LBD - Lmx1b = molecular target: T8, Nurr1 LBD - Lmx1b (Homo sapiens, UniProt P43354); test: HTRF co-regulator recruitment assay, Lmx1b; format: biochemical; conditions: biotinylated Lmx1b peptide, sGFP-Nurr1 LBD
T8 construct: sGFP-Nurr1[26]; LBD as FRET acceptor; made in house
Source text: as §1

[5] = molecular target: T9, Nurr1 LBD - RXRα LBD heterodimer (Homo sapiens, UniProt P43354); test: ITC Nurr1-RXR dimerization; conditions: ITC stoichiometry, ligand 200 µM
Nurr1 LBD (wt) [6] = molecular target: T10, Nurr1 LBD (wt) (Homo sapiens, UniProt P43354); test: ITC ligand binding to Nurr1 wt LBD; conditions: for n ligand binding to Nurr1 LBD: ITC stoichiometry; for n ligand binding to Nurr1 LBD / TΔS ligand binding to Nurr1 LBD: wt LBD
Target sequence in this assay (P43354 360-595 limits assumed): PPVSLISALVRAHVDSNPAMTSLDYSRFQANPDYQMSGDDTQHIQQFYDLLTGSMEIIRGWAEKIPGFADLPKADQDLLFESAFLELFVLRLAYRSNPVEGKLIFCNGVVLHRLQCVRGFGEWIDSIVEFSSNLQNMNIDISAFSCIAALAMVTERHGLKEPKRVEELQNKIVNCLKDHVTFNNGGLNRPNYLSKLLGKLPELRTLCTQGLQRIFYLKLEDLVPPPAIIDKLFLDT

[7] = molecular target: T9, Nurr1 LBD - RXRα LBD heterodimer; test: HTRF Nurr1-RXRα heterodimer formation assay; format: biochemical; parameters: a plasmid construct encoding Nurr1 (aa 364-598) in a pMal vector system; MBP (cleaved yes); made in house; host or cells: E.coli BL21-R3-pRARE2 (biotinylated Nurr1 LBD)
Procedure: Assay solutions were prepared in HTRF assay buffer supplemented with 0.1% (w/v) CHAPS as well as 1% DMSO with test compounds at fixed concentrations or DMSO alone as negative control (apo). […] Samples were equilibrated at RT for 2 h before FI520 and FI620 were recorded after excitation at 340 nm, and the HTRF signal was calculated as described above.

Nurr1 LBD (wt) [8] = molecular target: T10, Nurr1 LBD (wt); test: Binding kinetics by biolayer interferometry (BLI); parameters: For generation of biotinylated Nurr1 a plasmid construct encoding Nurr1 (aa 364-598) in a pMal vector system; MBP (cleaved yes); made in house; host or cells: E.coli BL21-R3-pRARE2; conditions: read-out: dissociation rate koff
Target sequence in this assay (P43354 364-598): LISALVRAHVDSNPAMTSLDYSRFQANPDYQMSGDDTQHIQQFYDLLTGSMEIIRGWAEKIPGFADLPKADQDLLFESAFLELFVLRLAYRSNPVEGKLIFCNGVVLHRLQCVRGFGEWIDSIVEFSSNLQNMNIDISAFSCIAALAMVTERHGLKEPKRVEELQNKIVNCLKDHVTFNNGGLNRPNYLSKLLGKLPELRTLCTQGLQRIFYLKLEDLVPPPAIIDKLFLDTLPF
Procedure: BLI measurements were conducted using the Octet R8 instrument (Sartorius). Nurr1 was enzymatically biotinylated using BirA, and Super Streptavidin (SSA) sensors were used to capture the biotinylated Nurr1. Prior to the assay, SSA sensors were pre-soaked for 10 minutes in a buffer containing 20 mM HEPES (pH 7.4), 150 mM NaCl, 0.01% Tween-20, and 0.5% DMSO. The sensors were then loaded with 2 μM biotinylated Nurr1 for 10 min, reaching a response of ~10 nm. Free biotin sites were blocked by incubating the sensors with 20 μg/ml biocytin for 1 minute. After quenching, the sensors were washed for 20 min with HEPES buffer and equilibrated for 5 min in the same buffer supplemented with 1% PEG3K. The binding of compounds was monitored for 120 s, followed by a 120 s dissociation phase. Two control experiments were conducted: one with sensors coated with the protein but without the compound, and the other with uncoated biosensors exposed to the compound at corresponding concentrations. These controls were used to correct for non-specific binding and baseline interference.

Gal4-Nurr1 I500F = molecular target: T11, Gal4-Nurr1 I500F (Homo sapiens, UniProt P43354, I500F); test: Gal4-Nurr1 hybrid reporter gene assay, mutant I500F; format: cell-based; conditions: vs wt
T11 construct: expressed in transfected cells; host or cells: HEK293T

Gal4-Nurr1 H372F = molecular target: T12, Gal4-Nurr1 H372F (Homo sapiens, UniProt P43354, H372F); test: Gal4-Nurr1 hybrid reporter gene assay, mutant H372F; format: cell-based; conditions: vs wt
T12 construct: expressed in transfected cells; host or cells: HEK293T

Gal4-Nurr1 I500W/V373W = molecular target: T13, Gal4-Nurr1 I500W/V373W (Homo sapiens, UniProt P43354, I500W/V373W); test: Gal4-Nurr1 hybrid reporter gene assay, double mutant I500W/V373W; format: cell-based; conditions: fold reporter activation vs. DMSO
T13 construct: expressed in transfected cells; host or cells: HEK293T
T13 sequence (P43354 360-595 V373W/I500W limits assumed): as the sequence (P43354 360-595 limits assumed) above, with V14W, I141W counted along it

T1 sequence (P43354 360-595 limits assumed): as the sequence (P43354 360-595 limits assumed) above
T7 sequence (P43354 360-595 limits assumed): as above
T9 sequence (P43354 364-598, one chain of several): as the sequence (P43354 364-598) above
T12 sequence (P43354 360-595 H372F limits assumed): as the sequence (P43354 360-595 limits assumed) above, with H13F counted along it
T8 sequence (P43354 360-595 limits assumed): as the sequence (P43354 360-595 limits assumed) above
T8 sequence (O60663 382-402 partner limits assumed): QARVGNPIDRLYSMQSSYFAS
Chain of full-length human Nurr1 (NBRE) (P43354 whole entry): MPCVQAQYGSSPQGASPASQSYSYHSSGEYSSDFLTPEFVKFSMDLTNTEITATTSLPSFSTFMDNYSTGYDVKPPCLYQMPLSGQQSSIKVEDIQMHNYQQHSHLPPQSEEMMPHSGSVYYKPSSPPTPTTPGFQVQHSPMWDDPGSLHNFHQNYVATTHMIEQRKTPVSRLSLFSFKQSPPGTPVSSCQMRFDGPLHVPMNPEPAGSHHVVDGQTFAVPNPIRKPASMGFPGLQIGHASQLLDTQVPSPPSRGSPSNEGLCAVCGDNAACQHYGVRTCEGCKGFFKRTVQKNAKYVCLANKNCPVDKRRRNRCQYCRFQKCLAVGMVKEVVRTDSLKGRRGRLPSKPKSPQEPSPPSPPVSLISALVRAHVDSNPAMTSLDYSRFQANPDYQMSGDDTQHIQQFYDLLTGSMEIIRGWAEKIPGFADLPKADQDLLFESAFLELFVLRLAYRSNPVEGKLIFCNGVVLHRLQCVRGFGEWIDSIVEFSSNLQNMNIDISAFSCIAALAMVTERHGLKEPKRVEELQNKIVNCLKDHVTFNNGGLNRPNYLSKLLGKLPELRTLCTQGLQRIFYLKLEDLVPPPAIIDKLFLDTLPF
Chain of full-length human Nurr1 (NurRE) (P43354 whole entry): as above
Chain of full-length human Nurr1 / RXR heterodimer (DR5) (P43354 whole entry, the tested form may be a part, one chain of several): as the sequence (P43354 whole entry) above
T5 sequence (P43354 364-598): as the sequence (P43354 364-598) above
T6 sequence (P43354 364-598): as above
T3 sequence (P43354 364-598): as above
T4 sequence (P43354 364-598): as above
T2 sequence (P43354 364-598): as above
T11 sequence (P43354 360-595 I500F limits assumed): as the sequence (P43354 360-595 limits assumed) above, with I141F counted along it

In the case of `O=C(O)C1=C(C(=O)Nc2ccc(-c3ccccc3OCc3ccccc3)cc2F)CCC1` [compound 1, 2-{[2’-(Benzyloxy)-3-fluoro-[1,1’-biphenyl]-4-yl]carbamoyl}cyclopent-1-ene-1-carboxylic acid], the EC50 ([1]; HEK293T, Gal4 hybrid reporter, wt) is reported as 0.03 ± 0.01 µM, the “potency on Gal4-Nurr1 relative to vidofludimus” value ([1]; higher potency than vidofludimus) is reported as 10 fold and the EC50 [2] is reported as 0.06 ± 0.01 µM. The EC50 [3] was 0.07 ± 0.01 µM, the EC50 [4] was 0.06 ± 0.01 µM and the IC50 (Nurr1 LBD - NCOR1) was 4 ± 1 µM. The IC50 (Nurr1 LBD - SMRT) was 5 ± 2 µM, the IC50 (Nurr1 LBD - PIASγ) was 12 ± 2 µM and the IC50 (Nurr1 LBD - NRIP) was 7 ± 2 µM. For the same molecule, the IC50 (Nurr1 LBD - NCoA6) was 7 ± 2 µM, the “effect on CoREST recruitment to Nurr1 LBD” value (Nurr1 LBD - CoREST) was “slightly reduced” and the “effect on Lmx1b recruitment to Nurr1 LBD” value (Nurr1 LBD - Lmx1b) was “no effect”. The “n Nurr1 LBD – RXR LBD” value [5] was 0.98±0.09, the Kd (Nurr1 LBD (wt) [6]) was 0.11 µM and the “n ligand binding to Nurr1 LBD” value (Nurr1 LBD (wt) [6]) was 1.00±0.04. For the same molecule, the “TΔS ligand binding to Nurr1 LBD” value (Nurr1 LBD (wt) [6]; ITC) was -23 ± 7.53 kJ/mol, the “affinity to Nurr1 LBD relative to vidofludimus” value (Nurr1 LBD (wt) [6]; enhanced affinity vs vidofludimus, ITC) was 7 fold and the “effect on Nurr1-RXR heterodimerization” value [7] was “weakened”. For the same molecule, the koff (Nurr1 LBD (wt) [8]) was 0.0224 s⁻¹.
With `CC(C)n1c(/C=C/C(O)CC(O)CC(=O)O)c(-c2ccc(F)cc2)c2ccccc21` (stereo not shown) [fluvastatin, reference compound] the “effect of I500F mutation on Nurr1 activation by the ligand” value (Gal4-Nurr1 I500F) was “did not alter”, the “effect of H372F mutation on Nurr1 activation by the ligand” value (Gal4-Nurr1 H372F) was “did not alter” and the “activation of Gal4-Nurr1 double mutant I500W/V373W” value (Gal4-Nurr1 I500W/V373W) was “responded”. For the same molecule, the “effect on CoREST recruitment to Nurr1 LBD” value (Nurr1 LBD - CoREST) was “slightly reduced”, the “n ligand binding to Nurr1 LBD” value (Nurr1 LBD (wt) [6]) was 0.90±0.04 and the “TΔS ligand binding to Nurr1 LBD” value (Nurr1 LBD (wt) [6]; ITC) was 15.5 ± 1.3 kJ/mol.
